According to patent publication US7960131B2, “Functional genomic pore assay for mixed cell populations” (Wisconsin Alumni Research Foundation, priority 2003, dated 2011):

Experiments:
P2X7 receptor = assay: Bead-standardized whole blood/PBMC monocyte P2X7 pore assay with PI exclusion of nonviable cells; type: cell-based, human; details: for BzATP Stimulated YO-PRO-1 measurement, Mean: viable monocytes
Experimental: PBMC Isolation. Six mLs of citrate-treated blood was underlayed with three mLs of Lymphoprep (Axis-Sheild, Oslo, Norway) and centrifuged at 800 g for 30 minutes at room temperature. The cellular interface was collected and washed twice with sterile phosphate-buffered saline (PBS). Cells were counted and assayed for pore activity as described below.
Sample Preparation. Although all leukocytes studied to date express P2X7, monocytes were selected as the cell population to screen because of the greater sensitivity of pore function noted between individuals participating in a small study with forty-five healthy subjects (5, 34). Staining procedures were as previously described (10, 14, 34). Briefly, aliquots of citrated whole blood ([…]) were washed twice in HEPES-buffered saline (HBS; 130 mM NaCl, 5 mM KCl, 20 mM HEPES pH 7.4, 0.1% bovine serum albumin, 10 mM glucose; components purchased at Sigma, St. Louis, Mo.) and resuspended in the original 500 L volume. A 10 μL aliquot of anti-human CD14 antibody conjugated to phycoerythrin (CD14-PE, 50 μg/mL; BD Biosciences, San Diego, Calif.) was added to each sample and incubated at room temperature for 20 min. The cells were washed twice in a potassium glutamate buffer (130 mM potassium glutamate, 5 mM KCl, 20 mM HEPES pH 7.4, 0.1% bovine serum albumin, 10 mM glucose; components from Sigma) to maximize the differences between high and low pore activities (17).
Samples were adjusted to 10 mM magnesium chloride, washed in HEPES-buffered saline and diluted to a volume of 2.5 mL in HBS. These latter steps have been previously shown to close the pore rapidly allowing for kinetic precision in a large clinical study (10, 34). For the methods described here, including all the samples from the MIA trial (Table 3), propidium iodide (PI; 5 μg/mL) was added to each sample and incubated for 15 min prior to sample acquisition using flow cytometry as described below.
Determination of Instrument Settings and Calculation of Spectral Overlap. All instruments in the facility are cleaned daily and assessed for laser alignment, photomultiplier tube (PMT) performance, linearity and noise. All fluorochromes were excited with a 488 nm laser and the following filter sets were used in all flow cytometers: a BP 530/30 for YO-PRO-1, a BP 585/42 for PE and a LP 670 for propidium iodide. Experiments were performed on FACScan, FACSCalibur, and LSR II flow cytometers (Becton Dickinson, San Jose, Calif.) in conjunction with the CellQuest, CellQuestPro, FACSDiva acquisition and analysis software programs (v. 3.3, v. 4.0, and v. 5.0.1, respectively; Becton Dickinson).
Previously, pore activity was measured on a FACScan flow cytometer (Becton Dickinson, San Jose, Calif.) using recalled instrument settings: YO-PRO-1 at 410 mV, PE at 412 mV, acquisition threshold for PE at 324 mV, and PE-32.6% YO-PRO-1 compensation (10). To facilitate comparisons across instrument platforms and among laboratories, we used these recalled settings as a template to adapt desired PMT voltages for SpheroTM Rainbow fluorescent particles (mid-range 3.0-3.4 μm; Sperotech, Lake Forest Ill.), corresponding data shown in FIG. 15. Rainbow particles have a very stable fluorescence and can be stored and used over a long period of time, allowing the intensities of these particles in each fluorescent detector to serve as target values for determining the voltages applied to each PMT for all of the cytometers used.
The same target values were used for the analog instruments, FACScan and FACSCalibur (BD Biosciences, San Jose, Calif.) because these instruments process fluorescence signals in the same way and the intensities determined were very close (data not shown). The LSR II (BD Biosciences, San Jose, Calif.) uses digital processing and fluorescence is collected and sampled differently so a second set of target values using these same samples was determined for each color detector on this cytometer. […]

P2X7-Q460R = biological target: T1, P2X7-Q460R (Homo sapiens, UniProt Q99572, Q460R); assay: YO-PRO-1 uptake fluorimetric plate assay in transfected HEK 293 cells, P2X7-Q460R; type: cell-based
T1 construct: expressed in transfected cells
T1 sequence (Q99572 1-595 Q460R): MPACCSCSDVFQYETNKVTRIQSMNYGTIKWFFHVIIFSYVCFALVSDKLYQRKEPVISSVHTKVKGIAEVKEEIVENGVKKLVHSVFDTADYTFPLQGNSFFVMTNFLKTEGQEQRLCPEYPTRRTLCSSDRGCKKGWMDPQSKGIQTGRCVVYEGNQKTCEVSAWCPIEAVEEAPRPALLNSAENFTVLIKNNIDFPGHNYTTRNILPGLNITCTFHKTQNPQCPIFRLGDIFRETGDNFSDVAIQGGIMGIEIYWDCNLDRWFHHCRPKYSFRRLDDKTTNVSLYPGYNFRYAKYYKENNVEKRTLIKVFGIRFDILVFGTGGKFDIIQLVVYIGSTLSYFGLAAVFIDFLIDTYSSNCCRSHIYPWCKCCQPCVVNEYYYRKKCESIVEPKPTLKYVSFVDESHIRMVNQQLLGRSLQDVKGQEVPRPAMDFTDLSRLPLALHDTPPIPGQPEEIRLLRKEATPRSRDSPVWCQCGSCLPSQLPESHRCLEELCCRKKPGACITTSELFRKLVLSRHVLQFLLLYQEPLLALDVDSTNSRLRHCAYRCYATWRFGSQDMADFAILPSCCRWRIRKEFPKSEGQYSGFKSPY
Excerpt: Recombinant Expression and Functional Characterization of Variant P2RX7 Alleles. A pcDNA3 expression vector containing a cloned human P2RX7 cDNA associated with normal pore activity was subjected to point mutagenesis using the Quick Change Kit (Stratagene Inc., city, state) to create the variants P2X7-G150R, P2X7-Q460R, and P2X7-E496A. HEK 293 cells were transfected by the Superfect liposomal method and stable populations were selected by G418 resistance. Expression of P2X7 mRNA and protein in unstimulated transfected HEK cell cultures was verified by RT-PCR and immunoblotting as previously described.
YO-PRO-1 fluorescence was measured by a Synergy-HT fluorescent plate reader (Biotek, city, state) using X±Y nm excitation and A±B emission filters.

2′-3′-O-(4-benzoylbenzoyl)-adenosine 5′-triphosphate [Bz-ATP]
BzATP Stimulated median YO-PRO-1 fluorescence (P2X7 receptor; Ficoll prep PBMC, A, Bead-Adjusted compensation): 292 | BzATP Stimulated YO-PRO-1 measurement, Mean (P2X7 receptor; Low Responder donor, Bead Adjusted PMT method): 30.1 | BzATP Stimulated YO-PRO-1 measurement, Mean (P2X7 receptor; Low Responder donor, Recalled PMT method): 30.0 | BzATP Stimulated YO-PRO-1 measurement, Mean (P2X7 receptor; Normal Responder donor, Bead Adjusted PMT method): 1019.0 | BzATP Stimulated YO-PRO-1 measurement, Mean (P2X7 receptor; Normal Responder donor, Recalled PMT method): 983.0 | BzATP Stimulated median YO-PRO-1 fluorescence (P2X7 receptor; Whole blood, A, Bead-Adjusted compensation): 276 | BzATP Stimulated median YO-PRO-1 fluorescence (P2X7 receptor; Whole blood, B, Uncompensated): 30.7 | BzATP Stimulated median YO-PRO-1 fluorescence (P2X7 receptor; Whole blood, B, YO-PRO-PE Set at 2%): 27.4 | BzATP Stimulated median YO-PRO-1 fluorescence (P2X7 receptor; Whole blood, C, Uncompensated): 1071 | BzATP Stimulated median YO-PRO-1 fluorescence (P2X7 receptor; Whole blood, C, YO-PRO-PE Set at 2%): 1067 | EC50 (P2X7-Q460R): ~30 µM | increase in YO-PRO-1 fluorescence over baseline (P2X7-Q460R): 8 fold
